# Test results from ChEMBL document CHEMBL4004860, “Medicinal plants used as anthelmintics: Ethnomedical, pharmacological, and phytochemical studies” (Eur J Med Chem, 2017).
# Columns and labels:
# Assay type in all cases: functional
# Rodentolepis nana = assay: Antihelmintic activity against Hymenolepis nana
# Caenorhabditis elegans = assay: Nematocidal activity against Caenorhabditis elegans
# Brugia malayi = assay: Antiparasitic activity against Brugia malayi
# Meloidogyne incognita [1] = assay: Nematocidal activity against Meloidogyne incognita; conditions: for IC50: Meloidogyne incognita
# Ascaridia galli = assay: Antihelmintic activity against Ascaridia galli
# Metaphire posthuma = assay: Antihelmintic activity against Pheretima posthuma
# Ascaris suum = assay: Antiparasitic activity against L3 and L4 larval stages of Ascaris suum
# Schistosoma mansoni = assay: Antiparasitic activity against Schistosoma mansoni
# Haemonchus contortus [2] = assay: Antihelmintic activity against Haemonchus contortus L3 larval stage
# [3] = Antiparasitic activity against Taenia solium
# Haemonchus contortus [4] = assay: Antihelmintic activity against egg stage of Haemonchus contortus
# Haemonchus contortus [5] = assay: Antihelmintic activity against larval stage of Haemonchus contortus
# [6] = tested on: Nippostrongylus brasiliensis; assay: Nematocidal activity against Nippostrongylus brasiliensis L4 larval stage
# Setaria cervi = assay: Antiparasitic activity against Setaria cervi
# Meloidogyne incognita [7] = assay: Nematocidal activity against Meloidogyne incognita second-stage juveniles after 3 days by light microscopic method
# [8] = tested on: Bursaphelenchus xylophilus; assay: Antiparasitic activity against Bursaphelenchus xylophilus
# Panagrellus redivivus = assay: Antiparasitic activity against Panagrellus redivivus
# Meloidogyne incognita [9] = assay: Nematocidal activity against Meloidogyne incognita second-stage juveniles up to 72 hrs
# Haemonchus contortus [10] = assay: Nematocidal activity against Haemonchus contortus
# Taenia crassiceps = assay: Cysticidal activity against Taenia crassiceps cysts after 11 days by trypan blue exclusion method; conditions: 264 h
# [11] = tested on: Trichostrongylus colubriformis; assay: Antihelmintic activity against Trichostrongylus colubriformis
# Paramphistomum = assay: Antiparasitic activity against Paramphistomum sp.
# [12] = tested on: Raillietina echinobothrida; assay: Antiparasitic activity against Raillietina echinobothrida
smiles,measurement,setting,value
CCCCC[C@H](O)CC(=O)CCc1cc(O)c(O)c(OC)c1,EC,Rodentolepis nana,0.001 mM
CC[C@H](CC[C@@H](C)[C@H]1CC[C@@H]2[C@]1(C)CC[C@H]1[C@@]2(C)CC=C2C[C@@H](O[C@@H]3O[C@H](CO)[C@@H](O)[C@H](O)[C@H]3O)CC[C@@]21C)C(C)C,IC50,Caenorhabditis elegans,140 µM
same,EC,Brugia malayi,>0.86 mM
CCCCCCCCC/C=C/C(=O)CCc1ccc(O)c(OC)c1,EC,Rodentolepis nana,0.001 mM
CC(C)=CC(=O)O[C@@H]1CC(C)(C)C[C@H]2C3=CC(=O)[C@@H]4[C@]56CC[C@](O)(OC5)C(C)(C)[C@@H]6CC[C@@]4(C)[C@]3(C)CC[C@@]12C(=O)O,EC,Meloidogyne incognita [1],1.71 mM
CC1(C)OC(=O)NC(C(=O)O)c2ccc(O)cc21 (stereo not given),EC,Ascaridia galli,3.9 mM
same,EC,Metaphire posthuma,3.9 mM
CCCCC[C@H](O)C[C@@H](O)CCc1ccc(O)c(OC)c1,EC,Rodentolepis nana,0.001 mM
CC[C@H](CC[C@@H](C)[C@H]1CC[C@@H]2[C@]1(C)CC[C@H]1[C@@]2(C)CC=C2C[C@@H](O)CC[C@@]21C)C(C)C,EC,Brugia malayi,>1.2 mM
CC(C)=C[C@H](O)C[C@@H](C)[C@H]1CC[C@@]2(C)[C@@H]3[C@@H](O)C=C4[C@@H](CC[C@H](O)C4(C)C)[C@@]3(C=O)CC[C@]12C,IC50,Caenorhabditis elegans,30 µM
C=CCc1ccc(O)c(OC)c1 [EUGENOL],IC50,Caenorhabditis elegans,370 µM
same,IC50,Meloidogyne incognita [1],400 µM
CCCCC[C@H](O)C[C@H](O)CCc1ccc(O)c(OC)c1,EC,Rodentolepis nana,0.001 mM
O=C/C=C/c1ccccc1 [CINNAMALDEHYDE],EC,Ascaris suum,0.2 mM
C[C@H]1CC[C@@]2(OC1)O[C@H]1C[C@H]3[C@@H]4CC[C@H]5C[C@@H](O[C@@H]6O[C@H](CO)[C@H](O[C@@H]7O[C@H](CO)[C@@H](O)[C@H](O[C@@H]8OC[C@@H](O)[C@H](O)[C@H]8O)[C@H]7O[C@@H]7OC[C@@H](O)[C@H](O)[C@H]7O)[C@H](O)[C@H]6O[C@@H]6O[C@@H](C)[C@H](O)[C@@H](O)[C@H]6O)CC[C@]5(C)[C@H]4CC[C@]3(C)[C@H]1[C@@H]2C,IC50,Caenorhabditis elegans,60 µM
CCCC(=O)C1=C(O)C(C)(C)C(O)=C(Cc2c(OC)cc(O)c(C(=O)CCC)c2O)C1=O [DESASPIDIN],EC,Schistosoma mansoni,0.01 mM
CO[C@H]1[C@H](O)[C@@H](O)[C@@H](O)[C@H](O)[C@@H]1O [METHYLINOSITOL],IC50,Haemonchus contortus [2],22700 µM
CCCCCCCCCCCCCCCCC(=O)OC[C@@H](O)CO,EC,[3],29.5 mM
CC1=CC2C(=O)c3cccc(O)c3C(=O)C2C(O)=C1O (stereo not given),EC,Schistosoma mansoni,0.19 mM
Cc1ccc(C(C)C)c(O)c1 [THYMOL],IC50,Haemonchus contortus [4],3660 µM
same,IC50,Haemonchus contortus [5],16600 µM
C=C1CC[C@H]2[C@@](C)(CCC[C@]2(C)C(=O)O)[C@@H]1C/C=C(\C)[C@@H]1CCc2c(C)c(CC3=C(O)C(C)(C)C(O)=C(C(C)=O)C3=O)c(O)c(C(=O)CCC)c2O1,IC50,[6],118 µM
C[C@H]1[C@H](C)CC[C@]2(C(=O)O)CC[C@]3(C)C(=CC[C@@H]4[C@@]5(C)CC[C@H](O)C(C)(C)[C@@H]5CC[C@]43C)[C@H]12 [URSOLIC ACID],IC50,Caenorhabditis elegans,50 µM
same,EC,Meloidogyne incognita [1],2.18 mM
same,EC,Setaria cervi,0.004 mM
CC(C)=CC(=O)O[C@@H]1C[C@@H](C)C(C)(O)[C@H]2C3=CC[C@@H]4[C@@]5(C)CC[C@H](O)C(C)(C)[C@@H]5CC[C@@]4(C)[C@]3(C)CC[C@]21C(=O)O (stereo not given in full),EC,Meloidogyne incognita [1],1.75 mM
CCCC(=O)C1=C(O)C(C)(C)C(O)=C(Cc2c(O)c(C)c(OC)c(C(=O)CCC)c2O)C1=O,EC,Schistosoma mansoni,0.01 mM
C=CCc1ccc(OC)cc1 [ESTRAGOLE],IC50,Meloidogyne incognita [1],1250 µM
CCCCCCCCCCCCCCCCCCCCCC(=O)OC[C@@H](O)CO,EC,[3],23.24 mM
CCCCCCCCC[C@H](O)CC(=O)CCc1ccc(O)c(OC)c1,EC,Rodentolepis nana,0.001 mM
CC1(C)CC[C@]2(C(=O)O)CC[C@]3(C)C(=CC[C@@H]4[C@@]5(C)CC[C@H](O)C(C)(C)[C@@H]5CC[C@]43C)[C@@H]2C1 [OLEANOLIC_ACID],EC,Brugia malayi,0.06 to 0.13 mM
CCO[C@@H]1O[C@H](CO)[C@H](O)[C@H](O)[C@H]1O,EC,Brugia malayi,>2.4 mM
CC(C)CCCCCCCCCCCCCC(=O)OC[C@@H](O)CO,EC,[3],29.5 mM
CCCCC[C@H](O)CC(=O)CCc1ccc(O)c(OC)c1 [GINGEROL],EC,Rodentolepis nana,0.001 mM
O=C(O)c1ccc(O)c(O)c1 [PROTOCATECHUIC ACID],EC,Meloidogyne incognita [7],0.78 mM
CCC/C=C/C(=O)CCc1ccc(O)c(OC)c1,EC,Rodentolepis nana,0.001 mM
CCN(CC)c1ccc2c(C)cc(=O)oc2c1,EC,Ascaridia galli,4.32 mM
same,EC,Metaphire posthuma,4.32 mM
CCCCC/C=C/C(=O)CCc1ccc(O)c(OC)c1 [SHOGAOL],EC,Rodentolepis nana,0.001 mM
C=C1CC[C@H]2[C@@](C)(CCC[C@]2(C)C(=O)O)[C@@H]1C/C=C(\C)[C@@H]1CCc2c(O)c(C(=O)CCC)c(O)c(CC3=C(O)C(C)(C)C(O)=C(C(C)=O)C3=O)c2O1,IC50,[6],34 µM
C=C1C(=O)O[C@@H]2[C@H]1CC/C(C)=C/CC[C@]1(C)O[C@@H]21,IC50,[8],280 µM
same,IC50,Panagrellus redivivus,180 µM
C/C=C/c1ccc(OC)cc1 [ANETHOLE],IC50,Haemonchus contortus [4],4650 µM
same,IC50,Haemonchus contortus [5],14200 µM
CC(C)[C@@]12C=C[C@@](C)(CC1)OO2 [(Z)-ASCARIDOLE],IC50,Meloidogyne incognita [9],190 µM
C=C1C(=O)O[C@@H]2[C@H]3C(CO)=CC(=O)C3=C(C)C[C@@H](O)[C@@H]12 [LACTUCIN],EC,Haemonchus contortus [10],2.89 mM
O=C1c2cccc(O)c2C(=O)C2C(O)=C(O)C(CO)=CC12 (stereo not given),EC,Schistosoma mansoni,0.17 mM
C=CCc1ccc(OC)c(OC)c1 [METHYLEUGENOL],IC50,Meloidogyne incognita [1],500 µM
CCCC(=O)c1c(O)c(CC2=C(O)C(C)(C)C(O)=C(C(C)=O)C2=O)c(O)c(CC2=C(O)C(C)(C)C(O)=C(C(C)=O)C2=O)c1O,IC50,[6],28 µM
CC[C@H](CC[C@@H](C)[C@H]1CC[C@]2(C)[C@]1(C)CC[C@@H]1[C@@]3(C)CC[C@H](O[C@@H]4O[C@H](CO)[C@@H](O)[C@H](O)[C@H]4O)CC3=CC[C@]12C)C(C)C,EC,[3],17.34 mM
O=c1cc(-c2ccccc2)oc2cc(O)cc(O)c12 [CHRYSIN],IC50,Taenia crassiceps,80 µM
O=C1C[C@@H](c2ccccc2)Oc2cc(O)cc(O)c21 [PINOCEMBRIN],IC50,Taenia crassiceps,2 µM
CCCCCC(=O)/C=C(O)/C=C/c1ccc(O)c(OC)c1,EC,Rodentolepis nana,0.001 mM
COc1cc(/C=C/C(=O)CC(=O)/C=C/c2ccc(O)c(OC)c2)ccc1O [CURCUMIN],EC,Schistosoma mansoni,0.005 mM
CCCC(=O)C1=C(O)C(C)(C)C(O)=C(Cc2c(O)c(CC3=C(O)C(C)(C)C(O)=C(C(C)=O)C3=O)c(O)c(C(=O)CCC)c2O)C1=O,IC50,[6],37 µM
O=C1OCCN2Oc3ccccc3C12 (stereo not given),EC,Ascaridia galli,5.23 mM
same,EC,Metaphire posthuma,5.23 mM
CC(C)[C@]12C=C[C@](C)(CC1)COOC2,IC50,Meloidogyne incognita [9],7860 µM
C[C@@H]1CC[C@]2(C(=O)O)CC[C@]3(C)C(=CC[C@@H]4[C@@]5(C)CC[C@H](O)C(C)(C)[C@@H]5CC[C@]43C)[C@@H]2[C@]1(C)O [POMOLIC ACID],EC,Meloidogyne incognita [1],2.11 mM
COc1cc(CCC(=O)C[C@@H](O)CCc2ccc(O)c(OC)c2)ccc1O,EC,Rodentolepis nana,0.001 mM
CC1(C)C[C@@H](O)[C@]2(C(=O)O)CC[C@]3(C)C(=CC[C@@H]4[C@@]5(C)CCC(=O)C(C)(C)[C@@H]5CC[C@]43C)[C@@H]2C1,EC,Meloidogyne incognita [1],2.12 mM
"C=C(C)[C@@H]1CCC2(C)OC2C1 (single isomer, unassigned; (+))",EC,Schistosoma mansoni,0.16 mM
COc1cc(CC/C=C/C(=O)CCc2ccc(O)c(OC)c2)ccc1O,EC,Rodentolepis nana,0.001 mM
Cc1ccc(C(C)C)cc1 [P-CYMENE],IC50,Meloidogyne incognita [9],3240 µM
C=C(C)[C@@H]1CC[C@]2(C(=O)O)CC[C@]3(C)[C@H](CC[C@@H]4[C@@]5(C)CC[C@H](O)C(C)(C)[C@@H]5CC[C@]43C)[C@@H]12 [BETULINIC ACID],IC50,Haemonchus contortus [2],110 µM
same,IC50,Caenorhabditis elegans,150 to 220 µM
same,EC,[3],21.9 mM
same,IC50,[11],180 µM
C=C1C(=O)O[C@@H]2[C@H]3C(CO)=CC(=O)C3=C(C)CC[C@@H]12 [DEOXYLACTUCIN],EC,Haemonchus contortus [10],4.99 mM
O=c1c(-c2ccc(O)cc2)coc2cc(O)cc(O)c12 [GENISTEIN],EC,Paramphistomum,0.74 mM
same,EC,[12],0.74 mM
C=C(C)[C@@H]1CC[C@]2(C)CC[C@]3(C)[C@H](CC[C@@H]4[C@@]5(C)CC[C@H](O)C(C)(C)[C@@H]5CC[C@]43C)[C@@H]12 [LUPEOL],IC50,Haemonchus contortus [2],50 µM
same,IC50,Caenorhabditis elegans,5 to 6 µM
same,IC50,[11],190 µM
C=C1CC[C@H]2[C@@](C)(CCC[C@]2(C)C(=O)O)[C@@H]1C/C=C(\C)[C@H]1CCc2c(O)c(C(=O)CCC)c(O)c(CC3=C(O)C(C)(C)C(O)=C(C(C)=O)C3=O)c2O1,IC50,[6],22 µM
